Reference: ChEMBL document CHEMBL5038625, “Application of the dual-tail approach for the design and synthesis of novel Thiopyrimidine-Benzenesulfonamide hybrids as selective carbonic anhydrase inhibitors” (Eur J Med Chem, 2022)

Assays:
Carbonic anhydrase 9 = Carbonic anhydrase 9 (Homo sapiens, UniProt Q16790); experiment: Inhibition of human CA9 preincubated for 15 mins by phenol red dye based stopped flow CO2 hydration assay
SF-539 = experiment: Antiproliferative activity against human SF-539 cells assessed as cell growth inhibition at 10 uM incubated for 24 hrs by sulforhodamine B assay; assay type: functional; conditions: read-out: GI
K562 = experiment: Antiproliferative activity against human K562 cells assessed as cell growth inhibition at 10 uM incubated for 24 hrs by sulforhodamine B assay; assay type: functional; conditions: read-out: GI
MOLT-4 = experiment: Antiproliferative activity against human MOLT-4 cells assessed as cell growth inhibition at 10 uM incubated for 24 hrs by sulforhodamine B assay; assay type: functional; conditions: read-out: GI
RPMI-8226 = experiment: Antiproliferative activity against human RPMI-8226 cells assessed as cell growth inhibition at 10 uM incubated for 24 hrs by sulforhodamine B assay; assay type: functional; conditions: read-out: GI
SR = experiment: Antiproliferative activity against human SR cells assessed as cell growth inhibition at 10 uM incubated for 24 hrs by sulforhodamine B assay; assay type: functional; conditions: read-out: GI
EKVX = experiment: Antiproliferative activity against human EKVX cells assessed as cell growth inhibition at 10 uM incubated for 24 hrs by sulforhodamine B assay; assay type: functional; conditions: read-out: GI
HCT-15 = experiment: Antiproliferative activity against human HCT-15 cells assessed as cell growth inhibition at 10 uM incubated for 24 hrs by sulforhodamine B assay; assay type: functional; conditions: read-out: GI
KM12 = experiment: Antiproliferative activity against human KM12 cells assessed as cell growth inhibition at 10 uM incubated for 24 hrs by sulforhodamine B assay; assay type: functional; conditions: read-out: GI
SF-268 = experiment: Antiproliferative activity against human SF-268 cells assessed as cell growth inhibition at 10 uM incubated for 24 hrs by sulforhodamine B assay; assay type: functional; conditions: read-out: GI
U-251 = experiment: Antiproliferative activity against human U-251 cells assessed as cell growth inhibition at 10 uM incubated for 24 hrs by sulforhodamine B assay; assay type: functional; conditions: read-out: GI
LOX IMVI = experiment: Antiproliferative activity against human LOX IMVI cells assessed as cell growth inhibition at 10 uM incubated for 24 hrs by sulforhodamine B assay; assay type: functional; conditions: read-out: GI
OVCAR-4 = experiment: Antiproliferative activity against human OVCAR-4 cells assessed as cell growth inhibition at 10 uM incubated for 24 hrs by sulforhodamine B assay; assay type: functional; conditions: read-out: GI
786-0 = experiment: Antiproliferative activity against human 786-0 cells assessed as cell growth inhibition at 10 uM incubated for 24 hrs by sulforhodamine B assay; assay type: functional; conditions: read-out: GI
A498 = experiment: Antiproliferative activity against human A498 cells assessed as cell growth inhibition at 10 uM incubated for 24 hrs by sulforhodamine B assay; assay type: functional; conditions: read-out: GI
ACHN = experiment: Antiproliferative activity against human ACHN cells assessed as cell growth inhibition at 10 uM incubated for 24 hrs by sulforhodamine B assay; assay type: functional; conditions: read-out: GI
CAKI-1 = experiment: Antiproliferative activity against human CAKI-1 cells assessed as cell growth inhibition at 10 uM incubated for 24 hrs by sulforhodamine B assay; assay type: functional; conditions: read-out: GI
RXF 393 = experiment: Antiproliferative activity against human RXF 393 cells assessed as cell growth inhibition at 10 uM incubated for 24 hrs by sulforhodamine B assay; assay type: functional; conditions: read-out: GI
UO-31 = experiment: Antiproliferative activity against human UO-31 cells assessed as cell growth inhibition at 10 uM incubated for 24 hrs by sulforhodamine B assay; assay type: functional; conditions: read-out: GI
PC-3 = experiment: Antiproliferative activity against human PC-3 cells assessed as cell growth inhibition at 10 uM incubated for 24 hrs by sulforhodamine B assay; assay type: functional; conditions: read-out: GI
MCF7 = experiment: Antiproliferative activity against human MCF7 cells assessed as cell growth inhibition at 10 uM incubated for 24 hrs by sulforhodamine B assay; assay type: functional; conditions: read-out: GI
Hs-578T = experiment: Antiproliferative activity against human HS-578T cells assessed as cell growth inhibition at 10 uM incubated for 24 hrs by sulforhodamine B assay; assay type: functional; conditions: read-out: GI
T47D = experiment: Antiproliferative activity against human T47D cells assessed as cell growth inhibition at 10 uM incubated for 24 hrs by sulforhodamine B assay; assay type: functional; conditions: read-out: GI
MDA-MB-468 = experiment: Antiproliferative activity against human MDA-MB-468 cells assessed as cell growth inhibition at 10 uM incubated for 24 hrs by sulforhodamine B assay; assay type: functional; conditions: read-out: GI
MDA-MB-231 = experiment: Antiproliferative activity against human MDA-MB-231 cells assessed as cell growth inhibition at 10 uM incubated for 24 hrs by sulforhodamine B assay; assay type: functional; conditions: read-out: GI
HOP-92 = experiment: Antiproliferative activity against human HOP-92 cells assessed as cell growth inhibition at 10 uM incubated for 24 hrs by sulforhodamine B assay; assay type: functional; conditions: read-out: GI
NCI-H226 = experiment: Antiproliferative activity against human NCI-H226 cells assessed as cell growth inhibition at 10 uM incubated for 24 hrs by sulforhodamine B assay; assay type: functional; conditions: read-out: GI
NCI-H23 = experiment: Antiproliferative activity against human NCI-H23 cells assessed as cell growth inhibition at 10 uM incubated for 24 hrs by sulforhodamine B assay; assay type: functional; conditions: read-out: GI
UACC-62 = experiment: Antiproliferative activity against human UACC-62 cells assessed as cell growth inhibition at 10 uM incubated for 24 hrs by sulforhodamine B assay; assay type: functional; conditions: read-out: GI
OVCAR-3 = experiment: Antiproliferative activity against human OVCAR-3 cells assessed as cell growth inhibition at 10 uM incubated for 24 hrs by sulforhodamine B assay; assay type: functional; conditions: read-out: GI

With COc1ccc(C(=O)CSc2nc(Nc3cccc(S(N)(=O)=O)c3)c(C#N)c(-c3cc(OC)ccc3OC)n2)cc1 the Ki (Carbonic anhydrase 9) was 7 nM, the inhibition of growth at 10 µM (SF-539) was 11.2% and the inhibition of growth at 10 µM (K562) was 10.7%. For the same compound, the inhibition of growth at 10 µM (MOLT-4) was 18.2%, the inhibition of growth at 10 µM (RPMI-8226) was 12.6% and the inhibition of growth at 10 µM (SR) was 12.7%. It also gave an inhibition of growth at 10 µM (EKVX) of 6.35%, an inhibition of growth at 10 µM (HCT-15) of 10.6% and an inhibition of growth at 10 µM (KM12) of 5.79%. The inhibition of growth at 10 µM (SF-268) was 5.3%, the inhibition of growth at 10 µM (U-251) was 9.1% and the inhibition of growth at 10 µM (LOX IMVI) was 11.3%. It also gave an inhibition of growth at 10 µM (OVCAR-4) of 7.16%, an inhibition of growth at 10 µM (786-0) of 7.02% and an inhibition of growth at 10 µM (A498) of 23.9%. The inhibition of growth at 10 µM (ACHN) was 5.69%, the inhibition of growth at 10 µM (CAKI-1) was 29.2% and the inhibition of growth at 10 µM (RXF 393) was 11.7%. For the same compound, the inhibition of growth at 10 µM (UO-31) was 29.2%, the inhibition of growth at 10 µM (PC-3) was 8.57% and the inhibition of growth at 10 µM (MCF7) was 11.8%. For the same compound, the inhibition of growth at 10 µM (Hs-578T) was 10.4%, the inhibition of growth at 10 µM (T47D) was 15.2% and the inhibition of growth at 10 µM (MDA-MB-468) was 8.93%. For the same compound, the inhibition of growth at 10 µM (MDA-MB-231) was 5.72%.
In the case of CC(C)c1nc(SCC(=O)c2ccc(Br)cc2)nc(Nc2cccc(S(N)(=O)=O)c2)c1C#N, the Ki (Carbonic anhydrase 9) is reported as 97.4 nM, the inhibition of growth at 10 µM (SF-539) is reported as 5.74% and the inhibition of growth at 10 µM (HOP-92) is reported as 15%. For the same compound, the inhibition of growth at 10 µM (NCI-H226) was 6.88%, the inhibition of growth at 10 µM (NCI-H23) was 5.54% and the inhibition of growth at 10 µM (UACC-62) was 8.44%. The inhibition of growth at 10 µM (OVCAR-3) was 6.91%, the inhibition of growth at 10 µM (CAKI-1) was 12.7% and the inhibition of growth at 10 µM (RXF 393) was 8.85%. The inhibition of growth at 10 µM (UO-31) was 20.9% and the inhibition of growth at 10 µM (MCF7) was 12.4%.
